Experimental data: patent US20100298141A1, “SUBSTITUTED PYRIDINE N-OXIDE HERBICIDES” (E. I. DU PONT DE NEMOURS AND COMPANY, priority 2007, published 2010)

Legend:
Conditions in all cases: scale 0 to 100
woolly cupgrass = assay: Test G preemergence test; type: in vivo, Eriochloa villosa
large crabgrass = assay: Test G preemergence test; type: in vivo, Digitaria sanguinalis
wild oat = assay: Test D preemergence test; type: in vivo, Avena fatua
Description: (§1) Seeds of plant species selected from annual bluegrass (Poa annua), blackgrass (Alopecurus myosuroides), downy bromegrass (Bromus tectorum), field violet (Viola arvensis), green foxtail (Setaria viridis), Italian ryegrass (Lolium multiflorum), littleseed canarygrass (Phalaris minor), spring wheat (Triticum aestivum), wild oat (Avena fatua), […]), winter barley (Hordeum vulgare), and winter wheat (Triticum aestivum) were planted and treated preemergence with test chemicals formulated in a non-phytotoxic solvent mixture which included a surfactant. […] A dash (-) response means no test result.

lambsquarters = assay: Test G preemergence test; type: in vivo, Chenopodium album
barnyardgrass = assay: Test G preemergence test; type: in vivo, Echinochloa crus-galli
field violet = assay: Test D preemergence test; type: in vivo, Viola arvensis
Description: as §1

yellow foxtail = assay: Test G preemergence test; type: in vivo, Pennisetum glaucum
fall panicum = assay: Test G preemergence test; type: in vivo, Panicum dichotomiflorum
downy bromegrass = assay: Test D preemergence test; type: in vivo, Bromus tectorum
Description: as §1

windgrass = assay: Test D preemergence test; type: in vivo, Apera spica-venti
Description: as §1

soybean = assay: Test G preemergence test; type: in vivo, Glycine max
broadleaf signalgrass = assay: Test G preemergence test; type: in vivo, Brachiaria platyphylla
winter wheat = assay: Test D preemergence test; type: in vivo, Triticum aestivum
Description: as §1

spring wheat = assay: Test D preemergence test; type: in vivo, Triticum aestivum
Description: as §1

giant foxtail = assay: Test G preemergence test; type: in vivo, Setaria faberii
eastern black nightshade = assay: Test G preemergence test; type: in vivo, Solanum ptycanthum
corn = assay: Test G preemergence test; type: in vivo, Zea mays
green foxtail = assay: Test D preemergence test; type: in vivo, Setaria viridis
Description: as §1

Italian ryegrass = assay: Test D preemergence test; type: in vivo, Lolium multiflorum
Description: as §1

tall waterhemp = assay: Test G preemergence test; type: in vivo, Amaranthus tuberculatos
goosegrass = assay: Test G preemergence test; type: in vivo, Eleusine indica
sorghum = assay: Test G preemergence test; type: in vivo, Sorghum vulgare

Cc1cc[n+]([O-])c(S(=O)(=O)C(C)c2c(C(F)(F)F)nn(C)c2Cl)c1 (racemic) [Compound 14]
Plant response rating, Cupgrass, Woolly (woolly cupgrass; 31 g ai/ha): 0
Plant response rating, Cupgrass, Woolly (woolly cupgrass; 62 g ai/ha): 0
Plant response rating, Cupgrass, Woolly (woolly cupgrass; 125 g ai/ha): 70
Plant response rating, Cupgrass, Woolly (woolly cupgrass; 250 g ai/ha): 95
Plant response rating, Crabgrass, Large (large crabgrass; 31 g ai/ha): 0
Plant response rating, Crabgrass, Large (large crabgrass; 62 g ai/ha): 45
Plant response rating, Crabgrass, Large (large crabgrass; 125 g ai/ha): 100
Plant response rating, Crabgrass, Large (large crabgrass; 250 g ai/ha): 100
Plant response rating, Oat, Wild (wild oat; 31 g ai/ha): 0
Plant response rating, Oat, Wild (wild oat; 62 g ai/ha): 0
Plant response rating, Oat, Wild (wild oat; 125 g ai/ha): 0
Plant response rating, Oat, Wild (wild oat; 250 g ai/ha): 20
Plant response rating, Lambsquarters (lambsquarters; 31 g ai/ha): 0
Plant response rating, Lambsquarters (lambsquarters; 62 g ai/ha): 0
Plant response rating, Lambsquarters (lambsquarters; 125 g ai/ha): 0
Plant response rating, Lambsquarters (lambsquarters; 250 g ai/ha): 40
Plant response rating, Barnyardgrass (barnyardgrass; 31 g ai/ha): 0
Plant response rating, Barnyardgrass (barnyardgrass; 62 g ai/ha): 45
Plant response rating, Barnyardgrass (barnyardgrass; 125 g ai/ha): 70
Plant response rating, Barnyardgrass (barnyardgrass; 250 g ai/ha): 100
Plant response rating, Field Violet (field violet; 31 g ai/ha): 0
Plant response rating, Field Violet (field violet; 62 g ai/ha): 0
Plant response rating, Field Violet (field violet; 125 g ai/ha): 0
Plant response rating, Field Violet (field violet; 250 g ai/ha): 45
Plant response rating, Foxtail, Yellow (yellow foxtail; 31 g ai/ha): 0
Plant response rating, Foxtail, Yellow (yellow foxtail; 62 g ai/ha): 0
Plant response rating, Foxtail, Yellow (yellow foxtail; 125 g ai/ha): 95
Plant response rating, Foxtail, Yellow (yellow foxtail; 250 g ai/ha): 95
Plant response rating, Fall Panicum (fall panicum; 31 g ai/ha): 15
Plant response rating, Fall Panicum (fall panicum; 62 g ai/ha): 50
Plant response rating, Fall Panicum (fall panicum; 125 g ai/ha): 70
Plant response rating, Fall Panicum (fall panicum; 250 g ai/ha): 100
Plant response rating, Bromegrass, Downy (downy bromegrass; 31 g ai/ha): 0
Plant response rating, Bromegrass, Downy (downy bromegrass; 62 g ai/ha): 0
Plant response rating, Bromegrass, Downy (downy bromegrass; 125 g ai/ha): 60
Plant response rating, Bromegrass, Downy (downy bromegrass; 250 g ai/ha): 60
Plant response rating, Windgrass (windgrass; 31 g ai/ha): 0
Plant response rating, Windgrass (windgrass; 62 g ai/ha): 75
Plant response rating, Windgrass (windgrass; 125 g ai/ha): 100
Plant response rating, Windgrass (windgrass; 250 g ai/ha): 100
Plant response rating, Soybean (soybean; 31 g ai/ha): 0
Plant response rating, Soybean (soybean; 62 g ai/ha): 0
Plant response rating, Soybean (soybean; 125 g ai/ha): 0
Plant response rating, Soybean (soybean; 250 g ai/ha): 0
Plant response rating, Signalgrass (broadleaf signalgrass; 31 g ai/ha): 0
Plant response rating, Signalgrass (broadleaf signalgrass; 62 g ai/ha): 15
Plant response rating, Signalgrass (broadleaf signalgrass; 125 g ai/ha): 20
Plant response rating, Signalgrass (broadleaf signalgrass; 250 g ai/ha): 85
Plant response rating, Wheat, Winter (winter wheat; 31 g ai/ha): 0
Plant response rating, Wheat, Winter (winter wheat; 62 g ai/ha): 0
Plant response rating, Wheat, Winter (winter wheat; 125 g ai/ha): 20
Plant response rating, Wheat, Winter (winter wheat; 250 g ai/ha): 35
Plant response rating, Wheat, Spring (spring wheat; 31 g ai/ha): 0
Plant response rating, Wheat, Spring (spring wheat; 62 g ai/ha): 0
Plant response rating, Wheat, Spring (spring wheat; 125 g ai/ha): 15
Plant response rating, Wheat, Spring (spring wheat; 250 g ai/ha): 20
Plant response rating, Foxtail, Giant (giant foxtail; 31 g ai/ha): 0
Plant response rating, Foxtail, Giant (giant foxtail; 62 g ai/ha): 20
Plant response rating, Foxtail, Giant (giant foxtail; 125 g ai/ha): 100
Plant response rating, Foxtail, Giant (giant foxtail; 250 g ai/ha): 100
Plant response rating, Nightshade (eastern black nightshade; 31 g ai/ha): 0
Plant response rating, Nightshade (eastern black nightshade; 62 g ai/ha): 0
Plant response rating, Nightshade (eastern black nightshade; 125 g ai/ha): 0
Plant response rating, Nightshade (eastern black nightshade; 250 g ai/ha): 55
Plant response rating, Corn (corn; 31 g ai/ha): 0
Plant response rating, Corn (corn; 62 g ai/ha): 0
Plant response rating, Corn (corn; 125 g ai/ha): 0
Plant response rating, Corn (corn; 250 g ai/ha): 35
Plant response rating, Foxtail, Green (green foxtail; 31 g ai/ha): 0
Plant response rating, Foxtail, Green (green foxtail; 62 g ai/ha): 20
Plant response rating, Foxtail, Green (green foxtail; 125 g ai/ha): 65
Plant response rating, Foxtail, Green (green foxtail; 250 g ai/ha): 80
Plant response rating, Ryegrass, Italian (Italian ryegrass; 31 g ai/ha): 0
Plant response rating, Ryegrass, Italian (Italian ryegrass; 62 g ai/ha): 0
Plant response rating, Ryegrass, Italian (Italian ryegrass; 125 g ai/ha): 0
Plant response rating, Ryegrass, Italian (Italian ryegrass; 250 g ai/ha): 100
Plant response rating, Waterhemp (tall waterhemp; 31 g ai/ha): 0
Plant response rating, Waterhemp (tall waterhemp; 62 g ai/ha): 0
Plant response rating, Waterhemp (tall waterhemp; 125 g ai/ha): 0
Plant response rating, Waterhemp (tall waterhemp; 250 g ai/ha): 40
Plant response rating, Goosegrass (goosegrass; 31 g ai/ha): 85
Plant response rating, Goosegrass (goosegrass; 62 g ai/ha): 95
Plant response rating, Goosegrass (goosegrass; 125 g ai/ha): 100
Plant response rating, Goosegrass (goosegrass; 250 g ai/ha): 100
Plant response rating, Sorghum (sorghum; 31 g ai/ha): 0
Plant response rating, Sorghum (sorghum; 62 g ai/ha): 0
Plant response rating, Sorghum (sorghum; 125 g ai/ha): 20
Plant response rating, Sorghum (sorghum; 250 g ai/ha): 65
